# Reference: paper PMC6219668 (Oncotarget, 2018)
# Tested on: panel of nearly 500 cancer cell lines
# Assay: Cancer Cell Line Encyclopedia profiling, 3-day CellTiter-Glo
# Type: cell-based
# Design: Amax: unit not given here
structure (smiles),measurement,setting,value
"CC(=O)c1c(C)c2cnc(Nc3ccc(N4CCNCC4)cn3)nc2n(C2CCCC2)c1=O [Palbociclib, reference compound]",EC50,"Homo sapiens, P3HR-1",> 8 µM
same,EC50,"Homo sapiens, P31-FUJ",> 8 µM
same,EC50,"Homo sapiens, PANC-03-27",> 8 µM
same,EC50,"Homo sapiens, PLC-PRF-5",1.79 µM
same,EC50,"Homo sapiens, Panc 02.03",1.14 µM
same,EC50,"Homo sapiens, Panc 04.03",> 8 µM
same,EC50,"Homo sapiens, Panc1005",> 8 µM
same,EC50,"Homo sapiens, Pfeiffer",6.95 µM
same,EC50,"Homo sapiens, RL95-2",> 8 µM
same,EC50,"Homo sapiens, RT-112",2.29 µM
same,EC50,"Homo sapiens, RVH-421",0.689 µM
same,EC50,"Homo sapiens, Raji",> 8 µM
same,EC50,"Homo sapiens, SAOS-2",> 8 µM
same,EC50,"Homo sapiens, SBC-5",1.11 µM
same,EC50,"Homo sapiens, SCC-25",0.782 µM
same,EC50,"Homo sapiens, SCaBER",> 8 µM
same,EC50,"Homo sapiens, SF-126",> 8 µM
same,EC50,"Homo sapiens, SF-295",> 8 µM
same,EC50,"Homo sapiens, SHP77",> 8 µM
same,EC50,"Homo sapiens, SJRH30",> 8 µM
same,EC50,"Homo sapiens, SJSA-1",> 8 µM
same,EC50,"Homo sapiens, SK-BR-3",> 8 µM
same,EC50,"Homo sapiens, SK-CO-1",> 8 µM
same,EC50,"Homo sapiens, SK-ES1",6.37 µM
same,EC50,"Homo sapiens, SK-HEP1",0.516 µM
same,EC50,"Homo sapiens, SK-LU-1",> 8 µM
same,EC50,"Homo sapiens, SK-MEL-2",> 8 µM
same,EC50,"Homo sapiens, SK-MEL-5",> 8 µM
same,EC50,"Homo sapiens, SK-MEL-24",> 8 µM
same,EC50,"Homo sapiens, SK-MEL-30",> 8 µM
same,EC50,"Homo sapiens, SK-MM-2",2.62 µM
same,EC50,"Homo sapiens, SK-N-AS",1.11 µM
same,EC50,"Homo sapiens, SK-N-DZ",2.73 µM
same,EC50,"Homo sapiens, SK-N-SH",1.25 µM
same,EC50,"Homo sapiens, SK-OV-3",2.22 µM
same,EC50,"Homo sapiens, SKNBE2",4.99 µM
same,EC50,"Homo sapiens, SNU1",> 8 µM
same,EC50,"Homo sapiens, SNU-16",> 8 µM
same,EC50,"Homo sapiens, SNU-182",> 8 µM
same,EC50,"Homo sapiens, SNU-423",2.01 µM
same,EC50,"Homo sapiens, SNU-449",> 8 µM
same,EC50,"Homo sapiens, SNU-C2B",> 8 µM
same,EC50,"Homo sapiens, SU-DHL10",3.42 µM
same,EC50,"Homo sapiens, SU-DHL-8",0.475 µM
same,EC50,"Homo sapiens, SU.86.86",> 8 µM
same,EC50,"Homo sapiens, SUP-T1",> 8 µM
same,EC50,"Homo sapiens, SW48",> 8 µM
same,EC50,"Homo sapiens, SW480",1.24 µM
same,EC50,"Homo sapiens, SW780",0.832 µM
same,EC50,"Homo sapiens, SW900",> 8 µM
same,EC50,"Homo sapiens, SW1353",> 8 µM
same,EC50,"Homo sapiens, SW1990",5.78 µM
same,EC50,"Homo sapiens, SW-403",> 8 µM
same,EC50,"Homo sapiens, SW-620",2.93 µM
same,EC50,"Homo sapiens, T47D",> 8 µM
same,EC50,"Homo sapiens, T98G",> 8 µM
same,EC50,"Homo sapiens, TCC-SUP",2.08 µM
same,EC50,"Homo sapiens, TOV21G",> 8 µM
same,EC50,"Homo sapiens, TOV112D",2.03 µM
same,EC50,"Homo sapiens, Toledo",> 8 µM
same,EC50,"Homo sapiens, U2OS",3.62 µM
same,EC50,"Homo sapiens, U-87 MG",2.01 µM
same,EC50,"Homo sapiens, U-118-MG",0.523 µM
same,EC50,"Homo sapiens, U-937",> 8 µM
same,EC50,"Homo sapiens, UACC-812",> 8 µM
same,EC50,"Homo sapiens, UMUC3",> 8 µM
same,EC50,"Homo sapiens, YKG-1",7.39 µM
same,EC50,"Homo sapiens, ZR-75-30",> 8 µM
same,EC50,Hs766T,1.52 µM
same,EC50,IGR-39,> 8 µM
same,EC50,JHH-2,> 8 µM
same,EC50,JHH-4,> 8 µM
same,EC50,JMSU-1,1.32 µM
same,EC50,KE-97,2.26 µM
same,EC50,KMRC-1,> 8 µM
same,EC50,KMS-26,1.33 µM
same,EC50,LOU-NH91,> 8 µM
same,EC50,LUDLU-1,0.74 µM
same,EC50,NCI-H322,> 8 µM
same,EC50,NCI-H1568,2.63 µM
same,EC50,NCI-H1915,> 8 µM
same,EC50,NCI-H2023,1.12 µM
same,EC50,NCI-H2172,> 8 µM
same,EC50,OCUM1,1.37 µM
same,EC50,OE21,4.75 µM
same,EC50,ONCO-DG-1,> 8 µM
same,EC50,PK-59,1.51 µM
same,EC50,PL45,> 8 µM
same,EC50,SH-10-TC,> 8 µM
same,EC50,SUIT-2,1.18 µM
same,EC50,SUP-M2,> 8 µM
same,EC50,SW579,1.3 µM
same,EC50,SW1271,> 8 µM
same,EC50,TC-71,> 8 µM
same,Amax,a172 (central_nervous_system),3.605
same,Amax,a204 (soft_tissue),-34.4227
same,Amax,a253 (salivary_gland),3.868
same,Amax,a375 (skin),-26.2658
same,Amax,a2058 (skin),2.616
same,Amax,a2780 (ovary),-39.663
same,Amax,gb1 (central_nervous_system),-42.437
same,Amax,gciy (stomach),-7.059
same,Amax,gct (soft_tissue),-52.5722
same,Amax,glc82 (lung),-19.1977
same,Amax,gms10 (central_nervous_system),-27.0424
same,Amax,h4 (central_nervous_system),-32.9184
same,Amax,hcc15 (lung),-12.0125
same,Amax,hcc56 (large_intestine),-4.352
same,Amax,hcc70 (breast),-11.029
same,Amax,hcc78 (lung),-19.9044
same,Amax,hcc1187 (breast),-9.361
same,Amax,hcc1569 (breast),-39.1174
same,Amax,hcc1806 (breast),0.7921
same,Amax,hcc1954 (breast),-54.5847
same,Amax,hcc2935 (lung),-14.5087
same,Amax,hcc4006 (lung),-19.6287
same,Amax,hct15 (large_intestine),-2.41
same,Amax,hct116 (large_intestine),1.94
same,Amax,hec1a (endometrium),-22.7551
same,Amax,hec1b (endometrium),-58.5184
same,Amax,hec59 (endometrium),-33.0687
same,Amax,hec151 (endometrium),-3.536
same,Amax,hec251 (endometrium),-0.6256
same,Amax,hec265 (endometrium),2.121
same,Amax,hel9217 (haematopoietic_and_lymphoid_tissue),11.0391
same,Amax,hep3b217 (liver),6.257
same,Amax,hepg2 (liver),-38.1063
same,Amax,heya8 (ovary),-39.168
same,Amax,hgc27 (stomach),-60.1752
same,Amax,hh (haematopoietic_and_lymphoid_tissue),-43.6309
same,Amax,hle (liver),-2.411
same,Amax,hlf (liver),2.5318
same,Amax,hmc18 (breast),-23.3461
same,Amax,hmcb (skin),-32.1017
same,Amax,hos (bone),-5.005
same,Amax,hpac (pancreas),-39.6565
same,Amax,hs229t (lung),-46.3597
same,Amax,hs294t (skin),-3.363
same,Amax,hs578t (breast),-24.7522
same,Amax,hs683 (central_nervous_system),-14.5926
same,Amax,hs695t (skin),-1.411
same,Amax,hs739t (breast),-16.3381
same,Amax,hs746t (stomach),-17.4326
same,Amax,hs766t (pancreas),-19.984
same,Amax,hs840t (upper_aerodigestive_tract),-48.5098
same,Amax,hs852t (skin),-23.0246
same,Amax,hs895t (skin),-52.8812
same,Amax,hs936t (skin),-33.7794
same,Amax,hs939t (skin),-41.6297
same,Amax,hs944t (skin),-2.178
same,Amax,hsc2 (upper_aerodigestive_tract),2.874
same,Amax,ht29 (large_intestine),-25.1424
same,Amax,ht144 (skin),4.385
same,Amax,ht1080 (soft_tissue),5.952
same,Amax,ht1197 (urinary_tract),6.185
same,Amax,ht1376 (urinary_tract),5.627
same,Amax,ht (haematopoietic_and_lymphoid_tissue),15.5049
same,Amax,hucct1 (biliary_tract),-2.064
same,Amax,huh1 (liver),-48.0113
same,Amax,hupt3 (pancreas),-32.9102
same,Amax,hupt4 (pancreas),-9.371
same,Amax,hut78 (haematopoietic_and_lymphoid_tissue),-6.156
same,Amax,ialm (lung),2.617
same,Amax,igr37 (skin),-4.699
same,Amax,igr39 (skin),3.52
same,Amax,igrov1 (ovary),1.295
same,Amax,imr32 (autonomic_ganglia),-46.7636
same,Amax,ipc298 (skin),-1.835
same,Amax,istmes1 (pleura),-16.4542
same,Amax,istmes2 (pleura),-52.8976
same,Amax,j82 (urinary_tract),-1.0373
same,Amax,jhh2 (liver),-0.7698
same,Amax,jhh4 (liver),0.2039
same,Amax,jhh6 (liver),2.0754
same,Amax,jhos2 (ovary),7.671
same,Amax,jhos4 (ovary),13.7773
same,Amax,jm1 (haematopoietic_and_lymphoid_tissue),-48.4258
same,Amax,jmsu1 (urinary_tract),-46.3166
same,Amax,k029ax (skin),-20.9241
same,Amax,kals1 (central_nervous_system),3.749
same,Amax,karpas299 (haematopoietic_and_lymphoid_tissue),-53.2153
same,Amax,karpas422 (haematopoietic_and_lymphoid_tissue),0.8347
same,Amax,ke39 (stomach),-57.8035
same,Amax,ke97 (haematopoietic_and_lymphoid_tissue),-62.2019
same,Amax,kg1 (haematopoietic_and_lymphoid_tissue),7.475
same,Amax,kle (endometrium),-0.3583
same,Amax,kmbc2 (urinary_tract),-20.7254
same,Amax,kmrc1 (kidney),-29.7335
same,Amax,kms12bm (haematopoietic_and_lymphoid_tissue),-27.7827
same,Amax,kms26 (haematopoietic_and_lymphoid_tissue),-78.7112
same,Amax,kns42 (central_nervous_system),-28.8816
